Measured values as given in patent US10030016B2 (Sunesis Pharmaceuticals, Inc., priority 2009, dated 2018).
pEC50, pIC50: −log10 of the molar value. Where a name gives a salt, the structure may show the parent alone. Read-outs that look alike come from different tables or passages of the source.

Legend:
[1] = biological target: PDK1 (Homo sapiens (Human), UniProt O15530); assay: PDK1 kinase assay (coupled PDK1/AKT/FAM-crosstide assay, IMAP fluorescence polarization); format: biochemical
Summary of the method: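 GST-tagged human PDK1 (aa 51-359, 0.75 nM) from insect cells activated unphosphorylated GST-AKT2 (aa 140-467–PIFtide fusion, 10 nM), which phosphorylated 100 nM FAM-crosstide; 40 μM ATP, pH 7.2 Tris/MgCl2, 30 min at 25° C. IMAP fluorescence polarization read-out; ΔmP versus compound concentration fitted with a 4-parameter curve.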

[2] = system: phospho-akt (Thr308) in PC-3 cells; assay: Inhibition of phospho-akt (Thr308) in PC-3 cells, MSD phospho-akt 308 ELISA kit; format: cell-based; conditions: 2 hours, no serum, read-out: EC50
Summary of the method: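 PC-3 cells (15,000/well, overnight in 10% FBS medium) treated 2 h with three-fold diluted compounds in serum-free medium; DMSO high and 5 μM wortmannin low controls. Lysates captured on BSA-blocked MSD plates overnight at 4 °C, then 1 h antibody detection at RT; phospho-Akt Thr308 read by MSD electrochemiluminescence.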

[3] = Homo sapiens, inhibition of P308 Akt in PC-3 cells using MSD
[4] = inhibition of P308 Akt in PC-3 cells using MSD
[5] = inhibition of phospo-PDK1 in vitro
[6] = Homo sapiens, inhibition of P308 Akt in PC-3 cells, MSD

Chain of PDK1 (O15530 51-359): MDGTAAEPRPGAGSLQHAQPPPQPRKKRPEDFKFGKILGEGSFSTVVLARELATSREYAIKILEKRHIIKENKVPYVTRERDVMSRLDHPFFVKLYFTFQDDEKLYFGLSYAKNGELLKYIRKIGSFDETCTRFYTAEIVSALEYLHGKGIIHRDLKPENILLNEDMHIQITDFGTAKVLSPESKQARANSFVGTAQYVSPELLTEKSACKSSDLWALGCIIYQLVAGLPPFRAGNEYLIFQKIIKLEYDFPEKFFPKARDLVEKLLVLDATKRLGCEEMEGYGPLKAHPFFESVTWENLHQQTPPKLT

| pIC50 ([1]; inhibition of PDK1 in vitro) | pEC50 [2, 3] | pIC50 [1, 5] | pEC50 [2, 6] | Molecule | other results |
| --- | --- | --- | --- | --- | --- |
| > 7.00 | < 5.00 | – | – | C[C@H](NC(=O)c1cc(C#N)cnc1NCc1ccc(-c2cnc(N)c(C(=O)O)c2)cc1)c1ccc(F)cc1 [Example 148, (S)-2-amino-5-(4-((5-cyano-3-(1-(4-fluorophenyl)ethylcarbamoyl)pyridin-2-ylamino)methyl)phenyl) nicotinic acid] | – |
| 6.00 to 7.00 | – | – | – | 2-(4-(3-amino-1H-pyrazolo [3,4-b]pyridin-5-yl) benzylamino)-N-(thiazol- 4-yl)-5-(trifluoromethyl) nicotinamide [Example 287] | pEC50 [2, 4]: < 5.00 |
| – | – | > 7.00 | > 6.00 | CN(C)C(=O)c1cnc(NCc2ccc(-c3ccc4ncnc(N)c4c3)s2)c(C(=O)NCc2ccc(F)c(F)c2)c1 [Example 7.24.4, 2-({[5-(4-aminoquinazolin-6-yl)thiophen-2-yl]methyl}amino)-N^3-(3,4-difluorobenzyl)-N^5,N^5-dimethylpyridine-3,5-dicarboxamide] | – |
| – | – | 6.00 to 7.00 | – | C[C@H](NC(=O)c1cccnc1NCc1ccc(-c2ccc3ncnc(N)c3c2)s1)c1ccccn1 [Example 3.58, (S)-2-(((5-(4-aminoquinazolin-6-yl)thiophen-2-yl)methyl)amino)-N-(1-(pyridin-2-yl)ethyl) nicotinamide (TFA salt)] | pEC50 ([2]; Homo sapiens, PC-3, 2 h, inhibition of P308 Akt in PC-3 cells, MSD): 5.00 to 6.00 |
| – | – | 6.00 to 7.00 | < 5.00 | Nc1ncnc2ccc(-c3ccc(CNc4ncc(S(=O)(=O)N5CCCCC5)cc4C(=O)NCc4ccc(F)c(F)c4)s3)cc12 [Example 8.6.8, 2-(((5-(4-aminoquinazolin-6-yl)thiophen-2-yl)methyl)amino)-N-(3,4-difluorobenzyl)-5-(piperidin-1-ylsulfonyl) nicotinamide] | – |
| > 7.00 | > 6.00 | – | – | C[C@H](NC(=O)c1nc(C#N)cnc1NCc1ccc(-c2cnc(N)c(O[C@@H]3CCNC3)n2)cc1)c1ccc(F)c(F)c1 [Example 161, 3-{4-[5-Amino-6-((R)-pyrrolidin-3-yloxy)-pyrazin-2-yl]-benzylamino}-6-cyano-pyrazine-2-carboxylic acid [(S)-1-(3,4-difluoro-phenyl)-ethyl]-amide] | – |
| > 7.00 | – | – | – | (S)-2-(4-(4-amino-7-methyl- 7H-pyrrolo[2,3-d]pyrimidin- 5-yl)benzylamino)-fluorophenyl) ethyl)nicotinamide [Example 97] | pEC50 [2, 4]: > 6.00 |
| – | – | > 7.00 | 5.00 to 6.00 | CC(C)Oc1cc(CNc2ncccc2C(=O)NCc2ccc(F)c(F)c2)cc(-c2ccc3ncnc(N)c3c2)c1 [Example 5.6] | – |
| > 7.00 | 5.00 to 6.00 | – | – | C[C@H](NC(=O)c1cc(C(F)(F)F)cnc1NCc1ccc(-c2cnc3[nH]nc(N)c3c2)cc1)c1ccc(Br)cc1 [Example 282, (S)-2-(4-(3-amino-1H-pyrazolo [3,4-b]pyridin-5-yl)benzylamino)-N-(1-(4-bromophenyl)ethyl)-5-(trifluoromethyl)nicotinamide] | – |
| > 7.00 | > 6.00 | – | – | Nc1n[nH]c2ncc(-c3ccc(CNc4ncc(C(F)(F)F)cc4C(=O)Nc4c(F)cc(F)cc4F)cc3)cc12 [Example 278, 2-(4-(3-amino-1H-pyrazolo [3,4-b]pyridin-5-yl)benzylamino)-5-(trifluoromethyl)-N-(2,4,6-trifluorophenyl)nicotinamide] | – |
| – | – | < 5.30 | 5.00 to 6.00 | CC(C)NC(=O)c1cccnc1NCc1cccc(-c2c[nH]c3ncccc23)c1 [Example 1.10, N-(propan-2-yl)-2-{[3-(1H-pyrrolo [2,3-b]pyridin-3-yl)benzyl]amino} pyridine-3-carboxamide] | – |
| – | – | 6.00 to 7.00 | < 5.00 | O=C(NCc1ccc(F)c(F)c1)c1cccnc1NCc1cc(-c2c[nH]c3ncccc23)cs1 [Ex. 6.15, N-(3,4-difluorobenzyl)-2-({[4-(1H-pyrrolo[2,3-b]pyridin-3-yl)thiophen-2-yl]-methyl}amino) pyridine-3-carboxamide] | – |
| 6.00 to 7.00 | < 5.00 | – | – | C[C@H](NC(=O)c1cc(C#N)cnc1NCc1cnc(-c2cnc3[nH]ncc3c2)nc1)c1ccc(F)cc1 [Example 69, 5-Cyano-N-[(S)-1-(4-fluoro-phenyl)-ethyl]-2-{[2-(1H-pyrazolo[3,4-b]pyridin-5-yl)-pyrimidin-5-ylmethyl]-amino}-nicotinamide] | – |
| 6.00 to 7.00 | – | – | – | C[C@H](NC(=O)c1nc(C#N)cnc1NCC1CCC(c2cn(C)c3ncnc(N)c23)CC1)c1ccc(F)c(F)c1 (some centres unmarked) [Example 339] | pEC50 ([2]; Homo sapiens, PC-3, 2 h, inhibition of P308 Akt in PC-3 cells using MSD): < 5.00 |
| > 7.00 | > 6.00 | – | – | C[C@H](NC(=O)c1nc(C#N)cnc1NCc1ccc(-c2cnc(N)c(NCC(O)CO)n2)cc1)c1ccc(F)c(F)c1 (stereo partly drawn) [Example 244, 3-{4-[5-Amino-6-(2,3-dihydroxy-propylamino)-pyrazin-2-yl]-benzylamino}-6-cyano-pyrazine-2-carboxylic acid [(S)-1-(3,4-difluoro-phenyl)-ethyl]-amide] | – |
| > 7.00 | > 6.00 | – | – | Cn1cnc2cnc3ccc(-c4ccc(CNc5ncccc5C(=O)NCc5cncc(F)c5)s4)cc3c21 [Example 354, N-((5-fluoropyridin-3-yl)methyl)-2-((5-(1-methyl-1H-imidazo[4,5-c]quinolin-8-yl)thiophen-2-ylmethyl)amino)nicotinamide] | – |
| – | – | > 7.00 | < 5.00 | O=C(NCc1ccc(F)c(F)c1)c1cccnc1NCc1ccc(-c2ccc3ncnc(N4CCOCC4)c3c2)s1 [Example 4.11, N-(3,4-difluorobenzyl)-2-(((5-(4-morpholinoquinazolin-6-yl)thiophen-2-yl)methyl)amino)nicotinamide] | – |
| > 7.00 | > 6.00 | – | – | NCCNc1n[nH]c2ncc(-c3ccc(CNc4ncc(C(F)(F)F)cc4C(=O)Nc4ccc(F)cc4)cc3)cc12 [Example 154, 2-(4-(3-(2-amino-ethylamino)-1H-pyrazolo [3,4-b]pyridin-5-yl)benzylamino)-N-(4-fluorophenyl)-5-(trifluoromethyl) nicotinamide] | – |
| > 7.00 | < 5.00 | – | – | N#Cc1ccc(NCc2ccc(-c3ccc4ncnc(N)c4c3)s2)c(C(=O)NCc2ccc(F)c(F)c2)c1 [Example 247, 2-(((5-(4-aminoquinazolin-6-yl)thiophen-2-yl)methyl)amino)-5-cyano-N-(3,4-difluorobenzyl)benzamide] | – |
| > 7.00 | 5.00 to 6.00 | – | – | C[C@H](NC(=O)c1nc(C#N)cnc1NCc1ccc(-c2cnc3[nH]nc(NC(=O)C(C)(C)C)c3c2)cc1)c1ccc(F)c(F)c1 [Example 420, (S)-6-cyano-N-(1-(3,4-difluorophenyl)ethyl)-3-(4-(3-pivalamido-1H-pyrazolo[3,4-b]pyridin-5-yl)benzylamino)pyrazine-2-carboxamide] | – |
| – | – | > 7.00 | > 6.00 | N#Cc1cnc(NCc2ccc(-c3cnc4[nH]nc(N)c4c3)cc2)c(C(=O)Nc2ccc(F)cc2)c1 [Example 35, 2-(4-(3-amino-1H-pyrazolo[3,4-b]pyridin-5-yl)benzylamino)-5-cyano-N-(4-fluorophenyl) nicotinamide] | – |
| > 7.00 | > 6.00 | – | – | Nc1n[nH]c2ncc(-c3ccc(CNc4ncc(C(F)(F)F)cc4C(=O)Nc4ccc(F)cc4)cn3)cc12 [Example 57, 2-(((6-(3-amino-1H-pyrazolo[3,4-b]pyridin-5-yl)pyridin-3-yl)methyl)amino)-N-(4-fluorophenyl)-5-(trifluoromethyl)nicotinamide] | – |
| – | – | > 7.00 | > 6.00 | N#Cc1cnc(NCc2ccc(-c3cnc4[nH]nc(N)c4c3)cc2)c(C(=O)NCc2ccc(F)cc2)n1 [Example 33, 3-(4-(3-amino-1H-pyrazolo[3,4-b]pyridin-5-yl)benzylamino)-6-cyano-N-(4-fluorobenzyl) pyrazine-2-carboxamide] | – |
| – | – | 6.00 to 7.00 | < 5.00 | CC(C)(C)NS(=O)(=O)c1cnc(NCc2ccc(-c3ccc4ncnc(N)c4c3)s2)c(C(=O)NCc2ccc(F)c(F)c2)c1 [Example 8.6.20, 2-(((5-(4-aminoquinazolin-6-yl)thiophen-2-yl)methyl)amino)-5-(N-tert-butylsulfamoyl)-N-(3,4-difluorobenzyl)nicotinamide] | – |
| > 7.00 | > 6.00 | – | – | C[C@H](NC(=O)c1cc(C(F)(F)F)cnc1NCc1ccc(-c2cnc3[nH]ncc3c2)cc1)c1ccc(F)cc1 [Example 246, N-[(S)-1-(4-Fluoro-phenyl)-ethyl]-2-[4-(1H-pyrazolo[3,4-b]pyridin-5-yl)-benzylamino]-5-trifluoromethyl-nicotinamide] | – |
| – | – | > 7.00 | 5.00 to 6.00 | O=C(NCc1ccc(F)cc1)c1cccnc1NCc1cccc(-c2c[nH]c3ncccc23)c1 [Example 1.6, 2-(3-(1H-pyrrolo[2,3-b]pyridin-3-yl)benzylamino)-N-(4-fluorobenzyl)nicotinamide] | – |
| – | – | 6.00 to 7.00 | > 6.00 | C[C@H](NC(=O)c1nccnc1NCc1ccc(-c2cc3c(N)ncnc3cn2)s1)c1ccc(F)c(F)c1 [Example 3.78, 3-({[5-(4-aminopyrido[3,4-d]pyrimidin-6-yl)thiophen-2-yl]methyl}amino)-N-[(1S)-1-(3,4-difluorophenyl)ethyl] pyrazine-2-carboxamide (TFA salt)] | – |
| – | – | > 7.00 | > 6.00 | Nc1ncnc2ccc(-c3ccc(CNc4ncc(C(F)(F)F)cc4C(=O)NCc4ccc(F)c(F)c4)s3)cc12 [Ex. 8.12.1, 2-(((5-(4-aminoquinazolin-6-yl)thiophen-2-yl)methyl)amino)-N-(3,4-difluorobenzyl)-5-(trifluoromethyl)nicotinamide] | – |
